PubChem BioAssay AID2060599 (Molecular Pharmacology Branch, DTP, NCI, 2025)
Several values for one entry are separate records, joined by “and”; a condition that tells them apart may be missing. Equal values may be shown once.

Test system: 817829-284-R-J1-PDC complex spheroids, viability
Test: Anticancer human tumor 817829-284-R-J1-PDC patient-derived colon adenocarcinoma cell line growth inhibition [CLK]
Conditions: for viability, T/C: stronger effect = lower value
Method in brief: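 Patient-derived tumor cells grown as complex spheroids with HUVEC endothelial cells and mesenchymal stem cells, treated with drug combinations. Concentrations descend in half-log steps from near clinical Cmax, or from 10 microM if Cmax unknown.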

[1] = curve of first compound, second compound 0.0316 µM
[2] = curve of first compound, second compound 0.1 µM
[3] = curve of first compound, second compound 0.316 µM
[4] = curve of first compound, second compound 1 µM
[5] = curve of first compound, second compound 3.16 µM
[6] = curve of first compound, second compound 10 µM
[7] = second compound 0.0316 µM, first compound 0.0316 µM
[8] = second compound 0.0316 µM, first compound 0.1 µM
[9] = second compound 0.0316 µM, first compound 0.316 µM
[10] = second compound 0.0316 µM, first compound 1 µM
[11] = second compound 0.0316 µM, first compound 3.16 µM
[12] = second compound 0.0316 µM, first compound 10 µM
[13] = second compound 0.1 µM, first compound 0.0316 µM
[14] = second compound 0.1 µM, first compound 0.1 µM
[15] = second compound 0.1 µM, first compound 0.316 µM
[16] = second compound 0.1 µM, first compound 1 µM
[17] = second compound 0.1 µM, first compound 3.16 µM
[18] = second compound 0.1 µM, first compound 10 µM
[19] = second compound 0.316 µM, first compound 0.0316 µM
[20] = second compound 0.316 µM, first compound 0.1 µM
[21] = second compound 0.316 µM, first compound 0.316 µM
[22] = second compound 0.316 µM, first compound 1 µM
[23] = second compound 0.316 µM, first compound 3.16 µM
[24] = second compound 0.316 µM, first compound 10 µM
[25] = second compound 1 µM, first compound 0.0316 µM
[26] = second compound 1 µM, first compound 0.1 µM
[27] = second compound 1 µM, first compound 0.316 µM
[28] = second compound 1 µM, first compound 1 µM
[29] = second compound 1 µM, first compound 3.16 µM
[30] = second compound 1 µM, first compound 10 µM
[31] = second compound 3.16 µM, first compound 0.0316 µM
[32] = second compound 3.16 µM, first compound 0.1 µM
[33] = second compound 3.16 µM, first compound 0.316 µM
[34] = second compound 3.16 µM, first compound 1 µM
[35] = second compound 3.16 µM, first compound 3.16 µM
[36] = second compound 3.16 µM, first compound 10 µM
[37] = second compound 10 µM, first compound 0.0316 µM
[38] = second compound 10 µM, first compound 0.1 µM
[39] = second compound 10 µM, first compound 0.316 µM
[40] = second compound 10 µM, first compound 1 µM
[41] = second compound 10 µM, first compound 3.16 µM
[42] = second compound 10 µM, first compound 10 µM
[43] = second compound 0.0316 µM, first compound 0.00316 µM
[44] = second compound 0.0316 µM, first compound 0.01 µM
[45] = second compound 0.1 µM, first compound 0.00316 µM
[46] = second compound 0.1 µM, first compound 0.01 µM
[47] = second compound 0.316 µM, first compound 0.00316 µM
[48] = second compound 0.316 µM, first compound 0.01 µM
[49] = second compound 1 µM, first compound 0.00316 µM
[50] = second compound 1 µM, first compound 0.01 µM
[51] = second compound 3.16 µM, first compound 0.00316 µM
[52] = second compound 3.16 µM, first compound 0.01 µM
[53] = second compound 10 µM, first compound 0.00316 µM
[54] = second compound 10 µM, first compound 0.01 µM
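Further: spheroids exposed to the agents for seven days before readout.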

Structure (SMILES): Nc1ccccc1NC(=O)c1ccc(CNC(=O)OCc2cccnc2)cc1 + CN1CCN(c2cc(C(=O)Nc3cc4cc(-c5cnn(C)c5)ccc4cn3)ccn2)CC1
- IC50 [1]: 223 nM
- IC50 [2]: < 31.6 nM
- IC50 [3]: < 31.6 nM
- IC50 [4]: < 31.6 nM
- IC50 [5]: < 31.6 nM
- IC50 [6]: < 31.6 nM
- viability, T/C [7]: 61.1%
- viability, T/C [8]: 70.6%
- viability, T/C [9]: 39.5%
- viability, T/C [10]: 21.9%
- viability, T/C [11]: 3.59%
- viability, T/C [12]: 0.06%
- viability, T/C [13]: 15.1%
- viability, T/C [14]: 14.2%
- viability, T/C [15]: 13.4%
- viability, T/C [16]: 5.61%
- viability, T/C [17]: 0.84%
- viability, T/C [18]: 0.03%
- viability, T/C [19]: 1.55%
- viability, T/C [20]: 1.54%
- viability, T/C [21]: 1.41%
- viability, T/C [22]: 0.56%
- viability, T/C [23]: 0.03%
- viability, T/C [24]: 0.03%
- viability, T/C [25]: 0.11%
- viability, T/C [26]: 0.14%
- viability, T/C [27]: 0.11%
- viability, T/C [28]: 0.1%
- viability, T/C [29]: 0.05%
- viability, T/C [30]: 0.06%
- viability, T/C [31]: 0.1%
- viability, T/C [32]: 0.12%
- viability, T/C [33]: 0.15%
- viability, T/C [34]: 0.15%
- viability, T/C [35]: 0.16%
- viability, T/C [36]: 0.22%
- viability, T/C [37]: 0.04%
- viability, T/C [38]: 0.07%
- viability, T/C [39]: 0.1%
- viability, T/C [40]: 0.3%
- viability, T/C [41]: 0.1%
- viability, T/C [42]: 0.1%

Structure (SMILES): O=c1[nH]cc(F)c(=O)[nH]1
- viability, T/C (compound 0.0316 µM): 66% and 85.8%
- viability, T/C (compound 0.1 µM): 74.9% and 79.8%
- viability, T/C (compound 0.316 µM): 98.9% and 85%
- viability, T/C (compound 1 µM): 67.1% and 46.5%
- viability, T/C (compound 3.16 µM): 63.9% and 53.2%
- viability, T/C (compound 10 µM): 39.6% and 38%
- IC50 (curve of compound): 5960 nM and 898 nM

Structure (SMILES): COc1c(OCCCN2CCOCC2)ccc2c3n(c(=NC(=O)c4cnc(N)nc4)nc12)CCN3 + CNC(=O)c1ccc(Nc2nc(OC3CCCC3)c3c(-c4ccc5nc(C)oc5c4)c[nH]c3n2)c(OC)c1
- IC50 [1]: 33.8 nM
- IC50 [2]: < 3.16 nM
- IC50 [3]: < 3.16 nM
- IC50 [4]: < 3.16 nM
- IC50 [5]: < 3.16 nM
- IC50 [6]: < 3.16 nM
- viability, T/C [43]: 39.8%
- viability, T/C [44]: 41.3%
- viability, T/C [7]: 74.9%
- viability, T/C [8]: 19.1%
- viability, T/C [9]: 4.03%
- viability, T/C [10]: 1.87%
- viability, T/C [45]: 24%
- viability, T/C [46]: 21%
- viability, T/C [13]: 15.8%
- viability, T/C [14]: 9.46%
- viability, T/C [15]: 3.69%
- viability, T/C [16]: 1.76%
- viability, T/C [47]: 20.6%
- viability, T/C [48]: 22%
- viability, T/C [19]: 18.4%
- viability, T/C [20]: 9.72%
- viability, T/C [21]: 3.22%
- viability, T/C [22]: 2.08%
- viability, T/C [49]: 31.5%
- viability, T/C [50]: 20.5%
- viability, T/C [25]: 11.6%
- viability, T/C [26]: 9.58%
- viability, T/C [27]: 2.07%
- viability, T/C [28]: 1.92%
- viability, T/C [51]: 26.7%
- viability, T/C [52]: 24%
- viability, T/C [31]: 11.9%
- viability, T/C [32]: 5.77%
- viability, T/C [33]: 2.1%
- viability, T/C [34]: 1.82%
- viability, T/C [53]: 19.7%
- viability, T/C [54]: 16%
- viability, T/C [37]: 19.1%
- viability, T/C [38]: 6.5%
- viability, T/C [39]: 6.46%
- viability, T/C [40]: 1.67%

Structure (SMILES): Cn1ncnc1[C@H]1c2n[nH]c(=O)c3cc(F)cc(c23)N[C@@H]1c1ccc(F)cc1 + CNC(=O)c1ccc(Nc2nc(OC3CCCC3)c3c(-c4ccc5nc(C)oc5c4)c[nH]c3n2)c(OC)c1
- IC50 [1]: < 0.316 nM
- IC50 [2]: < 0.316 nM
- IC50 [3]: < 0.316 nM
- IC50 [4]: < 0.316 nM
- IC50 [5]: < 0.316 nM
- IC50 [6]: < 0.316 nM
- viability, T/C (second compound 0.0316 µM, first compound 0.000316 µM): 26.6%
- viability, T/C (second compound 0.0316 µM, first compound 0.001 µM): 36.8%
- viability, T/C [43]: 27.3%
- viability, T/C [44]: 31.1%
- viability, T/C [7]: 25.3%
- viability, T/C [8]: 23.4%
- viability, T/C (second compound 0.1 µM, first compound 0.000316 µM): 20.5%
- viability, T/C (second compound 0.1 µM, first compound 0.001 µM): 21.1%
- viability, T/C [45]: 24.7%
- viability, T/C [46]: 23.5%
- viability, T/C [13]: 22.3%
- viability, T/C [14]: 18.2%
- viability, T/C (second compound 0.316 µM, first compound 0.000316 µM): 24.1%
- viability, T/C (second compound 0.316 µM, first compound 0.001 µM): 17.5%
- viability, T/C [47]: 20.2%
- viability, T/C [48]: 21.6%
- viability, T/C [19]: 18.6%
- viability, T/C [20]: 15.3%
- viability, T/C (second compound 1 µM, first compound 0.000316 µM): 18.1%
- viability, T/C (second compound 1 µM, first compound 0.001 µM): 20.1%
- viability, T/C [49]: 14.9%
- viability, T/C [50]: 17.3%
- viability, T/C [25]: 22%
- viability, T/C [26]: 12.1%
- viability, T/C (second compound 3.16 µM, first compound 0.000316 µM): 24.5%
- viability, T/C (second compound 3.16 µM, first compound 0.001 µM): 19.9%
- viability, T/C [51]: 27.6%
- viability, T/C [52]: 14.3%
- viability, T/C [31]: 16.7%
- viability, T/C [32]: 15.8%
- viability, T/C (second compound 10 µM, first compound 0.000316 µM): 16.8%
- viability, T/C (second compound 10 µM, first compound 0.001 µM): 13.4%
- viability, T/C [53]: 21.9%
- viability, T/C [54]: 18.4%
- viability, T/C [37]: 16%
- viability, T/C [38]: 18.1%

Structure (SMILES): CC(Nc1ccc2c(c1)OCCn1cc(N3C(=O)OCC3C(F)F)nc1-2)C(N)=O (configuration not stated) + CN1CCN(c2cc(C(=O)Nc3cc4cc(-c5cnn(C)c5)ccc4cn3)ccn2)CC1
- IC50 [1]: 3240 nM
- IC50 [2]: < 31.6 nM
- IC50 [3]: < 31.6 nM
- IC50 [4]: < 31.6 nM
- IC50 [5]: < 31.6 nM
- IC50 [6]: < 31.6 nM
- viability, T/C [7]: 53.4%
- viability, T/C [8]: 55.5%
- viability, T/C [9]: 56.8%
- viability, T/C [10]: 48.1%
- viability, T/C [11]: 51.4%
- viability, T/C [12]: 22.9%
- viability, T/C [13]: 20.4%
- viability, T/C [14]: 19.2%
- viability, T/C [15]: 17%
- viability, T/C [16]: 16.8%
- viability, T/C [17]: 14.3%
- viability, T/C [18]: 10.7%
- viability, T/C [19]: 1.57%
- viability, T/C [20]: 1.34%
- viability, T/C [21]: 0.89%
- viability, T/C [22]: 0.83%
- viability, T/C [23]: 0.72%
- viability, T/C [24]: 0.96%
- viability, T/C [25]: 0.08%
- viability, T/C [26]: 0.11%
- viability, T/C [27]: 0.12%
- viability, T/C [28]: 0.07%
- viability, T/C [29]: 0.09%
- viability, T/C [30]: 0.11%
- viability, T/C [31]: 0.12%
- viability, T/C [32]: 0.15%
- viability, T/C [33]: 0.15%
- viability, T/C [34]: 0.15%
- viability, T/C [35]: 0.17%
- viability, T/C [36]: 0.14%
- viability, T/C [37]: 0.07%
- viability, T/C [38]: 0.08%
- viability, T/C [39]: 0.13%
- viability, T/C [40]: 0.11%
- viability, T/C [41]: 0.24%
- viability, T/C [42]: 0.14%

Structure (SMILES): C=CC(=O)Nc1cc(Nc2nccc(-c3cn(C)c4ccccc34)n2)c(OC)cc1N(C)CCN(C)C
- viability, T/C (compound 0.000949 µM): 108%
- viability, T/C (compound 0.003 µM): 101%
- viability, T/C (compound 0.00949 µM): 85.9%
- viability, T/C (compound 0.03 µM): 72.9%
- viability, T/C (compound 0.0949 µM): 99.5%
- viability, T/C (compound 0.3 µM): 73.8%
- IC50 (curve of compound): > 300 nM
